Source: BindingDB's records for doi:10.7270/Q2959G0B (Nmmlsc, 2009)

molecular target: Ras-related C3 botulinum toxin substrate 1 (Mus musculus, UniProt P63001); assay: blockers of fluorescent GTP loading onto wildtype Rac1 – biochemical, pyrazoline analogs, multiplex, flow cytometry, Ki, SAR follow-up (AID 2055); settings: inactive by the depositor's call

How did the EC50 turn out when Cc1onc(-c2ccccc2)c1-c1ccc(S(N)(=O)=O)cc1 was run?
The EC50 was 30 µM.

For O=[N+]([O-])c1ccc([N+]2=N[C-](c3ccccc3)CC2c2ccccc2)cc1 (configuration not stated), which EC50 is on record?
The EC50 was 30 µM.

How did the EC50 turn out when Brc1ccc(N2N=C(c3ccccc3)CC2c2ccccc2)cc1 (configuration not stated) was run?
Its EC50 is 9.53 µM.

Which EC50 does the source give for COc1ccccc1C1CC(c2ccccc2)=NN1c1ccccc1 (configuration not stated) here?
Its EC50 is 30 µM.

How did the EC50 turn out when Clc1cccc(N2N=C(c3ccccc3)CC2c2ccccc2)c1 (configuration not stated) was run?
The EC50 was 30 µM.

Which EC50 does the source give for Clc1ccc(N2N=C(c3ccccc3)CC2c2ccccc2)cc1 (configuration not stated) here?
The EC50 was 30 µM.

For CC(=O)Oc1ccc(C2=NN(c3ccccc3)C(c3ccccc3)C2)cc1 (configuration not stated), which EC50 is on record?
The EC50 was 5.65 µM.

With O=C(O)c1ccc(N2N=C(c3ccccc3)CC2c2ccccc2)cc1 (configuration not stated) as the compound, how does the EC50 read?
The EC50 was 54.7 µM.

How did the EC50 turn out when COc1ccc(C2=NN(c3ccccc3)C(c3ccccc3C(F)(F)F)C2)cc1 (configuration not stated) was run?
The EC50 was 30 µM.

O=S(=O)(c1ccc(N2N=C(c3ccccc3)CC2c2ccccc2)cc1)C(F)F (configuration not stated) was tested. Which EC50 did it give?
Its EC50 is 30 µM.

NS(=O)(=O)c1ccc(N2N=C(c3ccc(Cl)cc3)CC2c2ccccc2)cc1 (configuration not stated) was tested. Which EC50 did it give?
Its EC50 is 30 µM.

How did the EC50 turn out when CCc1ccc(C2=NN(c3ccc(S(N)(=O)=O)cc3)C(c3ccc(F)cc3)C2)cc1 (configuration not stated) was run?
The EC50 was 30 µM.

How did the EC50 turn out when CN(C)c1ccc(C2C[C-](c3ccccc3)N=[N+]2c2ccc([N+](=O)[O-])cc2)cc1 (configuration not stated) was run?
The EC50 was 20.4 µM.

How did the EC50 turn out when COc1ccc(C2CC(c3ccc(F)cc3)=NN2c2cccc(F)c2)cc1OC (configuration not stated) was run?
Its EC50 is 0.027 µM.

For COc1ccc(C2CC(c3ccccc3)=NN2c2ccc(Cl)c(C(=O)O)c2)cc1 (configuration not stated), which EC50 is on record?
The EC50 was 30 µM.

How did the EC50 turn out when COc1ccc(C2CC(c3ccc(Cl)cc3)=NN2c2ccc(S(N)(=O)=O)cc2)cc1 (configuration not stated) was run?
Its EC50 is 30 µM.

Which EC50 does the source give for Cc1ccc(C2CC(c3ccccc3)=NN2c2ccc(S(N)(=O)=O)cc2)cc1 (configuration not stated) here?
The EC50 was 30 µM.

Cc1cccc(C2CC(c3ccccc3)=NN2c2ccc(S(N)(=O)=O)cc2)c1 (configuration not stated) was tested. Which EC50 did it give?
The EC50 was 30 µM.

Which EC50 does the source give for COc1ccc(C2CC(c3ccccc3OC)=NN2c2ccc(S(N)(=O)=O)cc2)cc1 (configuration not stated) here?
Its EC50 is 30 µM.

With COc1ccc(C2CC(c3ccc(C)cc3)=NN2c2ccc(S(N)(=O)=O)cc2)cc1 (configuration not stated) as the compound, how does the EC50 read?
The EC50 was 30 µM.

Which EC50 does the source give for COc1ccc(C2CC(c3cccc(C(F)(F)F)c3)=NN2c2ccc(S(N)(=O)=O)cc2)cc1 (configuration not stated) here?
The EC50 was 30 µM.

Which EC50 does the source give for COc1ccc(C2CC(c3cccc(N(C)C)c3)=NN2c2ccc(S(N)(=O)=O)cc2)cc1 (configuration not stated) here?
The EC50 was 30 µM.

With COc1ccc(C2CC(c3cccnc3)=NN2c2ccc(S(N)(=O)=O)cc2)cc1 (configuration not stated) as the compound, how does the EC50 read?
The EC50 was 30 µM.

COc1ccc(C2CC(c3ccncc3)=NN2c2ccc(S(N)(=O)=O)cc2)cc1 (configuration not stated) was tested. Which EC50 did it give?
Its EC50 is 30 µM.

Which EC50 does the source give for Fc1ccccc1C1CC(c2ccc(Br)cc2)=NN1c1ccc(Br)cc1 (configuration not stated) [2,5-bis(4-bromophenyl)-3-(2-fluorophenyl)-3,4-dihydropyrazole] here?
The EC50 was 30 µM.

Which EC50 does the source give for COc1ccc(C2CC(c3ccc(F)cc3)=NN2c2cc(Cl)ccc2Cl)cc1 (configuration not stated) [2-(2,5-dichlorophenyl)-5-(4-fluorophenyl)-3-(4-methoxyphenyl)-3,4-dihydropyrazole] here?
The EC50 was 0.089 µM.

How did the EC50 turn out when COc1ccc(C2=NN(c3ccc(Cl)c(Cl)c3)C(c3ccc(OC)cc3)C2)cc1 (configuration not stated) [2-(3,4-dichlorophenyl)-3,5-bis(4-methoxyphenyl)-3,4-dihydropyrazole] was run?
Its EC50 is 30 µM.

Fc1ccc(C2=NN(c3cccc(Br)c3)C(c3ccccc3)C2)cc1 (configuration not stated) [2-(3-bromophenyl)-5-(4-fluorophenyl)-3-phenyl-3,4-dihydropyrazole] was tested. Which EC50 did it give?
Its EC50 is 30 µM.

For COc1ccc(C2=NN(c3cccc(F)c3)C(c3ccc(OC)cc3)C2)cc1 (configuration not stated) [2-(3-fluorophenyl)-3,5-bis(4-methoxyphenyl)-3,4-dihydropyrazole], which EC50 is on record?
Its EC50 is 30 µM.

With COc1ccc(C2CC(c3ccccc3)=NN2c2ccc(Cl)c(C(=O)O)c2)cc1OC (configuration not stated) [2-chloro-5-[3-(3,4-dimethoxyphenyl)-5-phenyl-3,4-dihydropyrazol-2-yl]benzoic acid] as the compound, how does the EC50 read?
The EC50 was 30 µM.

Which EC50 does the source give for COc1ccc(C2=NN(c3cccc(F)c3)C(c3ccc(Cl)cc3)C2)cc1 (configuration not stated) [3-(4-chlorophenyl)-2-(3-fluorophenyl)-5-(4-methoxyphenyl)-3,4-dihydropyrazole] here?
The EC50 was 30 µM.

For COc1ccc(C2C[C-](c3ccccc3)N=[N+]2c2ccc([N+](=O)[O-])cc2)cc1 (configuration not stated) [3-(4-methoxyphenyl)-2-(4-nitrophenyl)-5-phenyl-3,4-dihydropyrazole], which EC50 is on record?
Its EC50 is 30 µM.
